This is an account of results in ChEMBL document CHEMBL1201862, “PubChem BioAssay data set” (2004).

Several values for one entry are separate records, joined by “and”; a condition that tells them apart may be missing. Identical values can stand only once.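 Values below derive from 48-hour exposures of cells grown in 96-well plates, with endpoints linearly interpolated between the two concentrations bracketing the appropriate inhibition level. The concentration for 50% growth inhibition is given as GI50.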 Activity calls are given as the source filed them. Cut-off read from the data, not from the text of the source: active = GI50 up to about 1.1 µM and inactive = higher. Some results are limits rather than exact numbers.

Test systems include A498; A549; COLO 205; HCT-15; Hs-578T; IGROV-1; K562; LOX IMVI; MCF7; MDA-N; OVCAR-3; SK-MEL-28; SNB-19; SW-620; TK-10; UACC-62; UO-31; HL-60; Malme-3M; U-251.
Holding throughout (assay): DTP human tumour cell line panel, 48 h

In the case of `CC(=O)c1c(-c2cccc3ccccc23)c(C#N)c(=S)n(C2OC(CO)C(O)C(O)C2O)c1C` (stereo unspecified), the GI50 was > 100 µM (inactive) with A498; > 100 µM (inactive) in the assay on A549; > 100 µM (inactive) with COLO 205; > 100 µM in the assay with HCT-15; > 100 µM (inactive) in the assay on Hs-578T; > 100 µM (inactive) in the assay with IGROV-1. The GI50 in the assay with K562 is 43.9 µM (inactive) and 71.6 µM (inactive); in the assay on LOX IMVI, > 100 µM (inactive); in the assay on MCF7, > 100 µM (inactive); in the assay on MDA-N it was 50.1 µM (inactive); in the assay with OVCAR-3, > 100 µM (inactive); in the assay on SK-MEL-28 it was > 100 µM (inactive). Besides, the GI50 in the assay on SNB-19 is 59.7 µM (inactive); with SW-620 it was > 100 µM (inactive); in the assay with TK-10 it was > 100 µM (inactive); in the assay on UACC-62, 64.7 µM (inactive); with UO-31 it was 87.5 µM (inactive).
For the compound `CCc1cc2c(c3c1CCCC3)CC1(Cc3ccc(C(=O)OC)cc3C1)C2` (stereo unspecified), the GI50 was > 100 µM (inactive) in the assay on A549; > 100 µM (inactive) in the assay on COLO 205; > 100 µM in the assay on HCT-15; 20.8 µM (inactive) in the assay with HL-60; 60.3 µM (inactive) in the assay on Hs-578T; > 100 µM (inactive) with IGROV-1. Moreover, the GI50 is 40.3 µM (inactive) in the assay with K562; > 100 µM (inactive) in the assay with LOX IMVI; > 100 µM (inactive) in the assay on MCF7; > 100 µM (inactive) in the assay on MDA-N; > 100 µM (inactive) in the assay with Malme-3M; > 100 µM (inactive) in the assay with OVCAR-3. In addition, the GI50 with SK-MEL-28 was > 100 µM (inactive); in the assay on SNB-19, > 100 µM (inactive); in the assay with SW-620, > 100 µM (inactive); with TK-10, > 100 µM (inactive); with U-251, 86.1 µM (inactive); in the assay with UACC-62, > 100 µM (inactive). Moreover, in the assay with UO-31, the GI50 is > 100 µM (inactive).
As to `CCN(CC)C(=S)SS(=O)(=O)c1cccc(N)c1`, the GI50 in the assay with A498 was > 100 µM (inactive); in the assay with A549, > 100 µM (inactive); with COLO 205, > 100 µM (inactive); in the assay on HCT-15, > 100 µM; in the assay on Hs-578T it was > 100 µM (inactive); with K562 it was > 100 µM (inactive). For the same compound, the GI50 with LOX IMVI, in the assay with MCF7, with MDA-N, in the assay with Malme-3M, with OVCAR-3 and in the assay on SK-MEL-28 was > 100 µM (inactive) each time. Also, the GI50 in the assay on SNB-19, in the assay on SW-620, in the assay with TK-10, in the assay on U-251, with UACC-62 and in the assay with UO-31 was > 100 µM (inactive) in each case.
Consider `COc1cc(C[C@@]2(C)[C@@H]3CCC[C@H](CO)[C@@]3(C)CC[C@@H]2C)c(Cl)c(OC)c1`, for which the GI50 in the assay with A549 is 14.4 µM (inactive); in the assay on COLO 205, 15.3 µM (inactive); in the assay on HCT-15, 16.7 µM; in the assay on HL-60 it was 17.6 µM (inactive); in the assay on Hs-578T it was 21.5 µM (inactive); in the assay on IGROV-1 it was 14.7 µM (inactive). The GI50 in the assay with K562 was 16.3 µM (inactive); in the assay on LOX IMVI, 17.8 µM (inactive); in the assay on MCF7, 15.5 µM (inactive); in the assay with MDA-N, 15.5 µM (inactive); with Malme-3M, 16.2 µM (inactive); with OVCAR-3, 15.3 µM (inactive). For the same compound, the GI50 with SK-MEL-28 was 26.2 µM (inactive); in the assay with SNB-19, 18.6 µM (inactive); in the assay on SW-620 it was 29.2 µM (inactive); in the assay with TK-10, 19.5 µM (inactive); in the assay with U-251 it was 15.5 µM (inactive); in the assay on UACC-62, 15.3 µM (inactive). Moreover, the GI50 with UO-31 is 16.6 µM (inactive).
For the compound `CC(C)(C)OC(=O)Cn1ncn(NC(=O)Cc2ccccc2)c1=O`, the GI50 is > 10 µM (inactive) in the assay on A498; > 10 µM (inactive) in the assay on A549; > 10 µM (inactive) with COLO 205; > 10 µM in the assay with HCT-15; > 10 µM (inactive) in the assay with Hs-578T; > 10 µM (inactive) with IGROV-1. Further, the GI50 in the assay with K562, in the assay with LOX IMVI, in the assay on MCF7, with MDA-N, in the assay with Malme-3M and in the assay with OVCAR-3 was > 10 µM (inactive) throughout. Further, the GI50 in the assay on SK-MEL-28, in the assay on SNB-19, in the assay on SW-620, in the assay with TK-10, in the assay with U-251 and in the assay on UACC-62 was > 10 µM (inactive) in each case. The GI50 with UO-31 is > 10 µM (inactive).
On to `CCOC(=O)/C(=C\c1ccnc2ccccc12)P(=O)(OCC)OCC`, for which the GI50 in the assay on A498 is 1.77 µM (inactive); with A549, 5.31 µM (inactive); in the assay with COLO 205 it was 2.17 µM (inactive); in the assay with HCT-15, 1.47 µM; with Hs-578T, 3.21 µM (inactive); in the assay with IGROV-1, 1.6 µM (inactive). The GI50 in the assay on K562 was 5.89 µM (inactive); in the assay with LOX IMVI, 1.57 µM (inactive); in the assay on MCF7 it was 1.4 µM (inactive); in the assay on MDA-N it was 2.3 µM (inactive); in the assay on Malme-3M, 1.33 µM (inactive); with OVCAR-3, 1.64 µM (inactive). The GI50 was 1.57 µM (inactive) with SK-MEL-28; 3.65 µM (inactive) in the assay with SNB-19; 2.52 µM (inactive) in the assay on SW-620; 4.43 µM (inactive) with TK-10; 2.9 µM (inactive) with U-251; 2.65 µM (inactive) with UACC-62.
For `COC(=O)C1Cc2c(OC)ccc(OC)c2C(O)C1C(=O)OC` (stereo unspecified), the GI50 in the assay on A549, with COLO 205, in the assay on HL-60, in the assay on Hs-578T, with IGROV-1 and in the assay on K562 was > 100 µM (inactive) in each case. The GI50 with LOX IMVI, with MCF7, in the assay with MDA-N, with Malme-3M, in the assay on OVCAR-3 and in the assay with SK-MEL-28 was > 100 µM (inactive) throughout. Also, the GI50 in the assay with SNB-19, in the assay on SW-620, in the assay with TK-10, with U-251, in the assay on UACC-62 and in the assay on UO-31 was > 100 µM (inactive) each time.
On to `COc1cc([N+](=O)[O-])c(S(=O)(=O)O)cc1-n1nc(-c2ccccc2)n[n+]1-c1cc(S(=O)(=O)[O-])c([N+](=O)[O-])cc1OC`, for which the GI50 was > 100 µM (inactive) with A549; > 100 µM (inactive) in the assay on COLO 205; > 100 µM in the assay with HCT-15; > 100 µM (inactive) in the assay on HL-60; > 100 µM (inactive) with Hs-578T; > 100 µM (inactive) in the assay on IGROV-1. Further, the GI50 in the assay on K562, with LOX IMVI, with MCF7, in the assay on MDA-N, in the assay on Malme-3M and with OVCAR-3 was > 100 µM (inactive) throughout. For the same compound, the GI50 in the assay with SK-MEL-28, in the assay on SNB-19, in the assay with SW-620, in the assay with U-251, in the assay with UACC-62 and in the assay on UO-31 was > 100 µM (inactive) in each case.

For orientation: GI50 means the concentration giving 50% growth inhibition.
